Patent US9771369B2, “Compounds and methods for kinase modulation, and indications therefor” (Plexxikon Inc., priority 2014, dated 2017)

Columns and labels:
c-Kit kinase = c-Kit kinase (Homo sapiens (Human), UniProt P10721); assay: c-Kit biochemical assay (AlphaScreen kinase activity)
Method in brief: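 AlphaScreen: c-Kit phosphorylates biotin-(E4Y)3 (100 nM) at 10 μM ATP, pH 7.2 HEPES buffer with Mg/Mn, 5% DMSO, 1 h room temperature; streptavidin donor and PY30 acceptor beads detect product. Second format: 100 μM ATP, 30 nM biotin-(E4Y)10, pH 7.5. IC50 from 8-point 1:3 dilution curves.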

[1] = tested on: BaF3-FL KIT D816V or BaF3-FL KIT V560G/D816V cell line; assay: Cell-based assays of c-Kit mutant kinase activity (cell proliferation, ATPlite); details: at least one of the c-kit cell assays of Example 7
Method in brief: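 BaF3 cells dependent on transfected full-length human KIT D816V or V560G/D816V (pCI-Neo, CMV promoter) were seeded at 1×10^4 cells/well and exposed to 8-point 1:3 dilutions from 10 μM top (0.2% DMSO) for three days at 37° C. ATPlite luminescence gave cell number; IC50 from concentration-response.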

Sequence of c-Kit kinase (P10721 26-976): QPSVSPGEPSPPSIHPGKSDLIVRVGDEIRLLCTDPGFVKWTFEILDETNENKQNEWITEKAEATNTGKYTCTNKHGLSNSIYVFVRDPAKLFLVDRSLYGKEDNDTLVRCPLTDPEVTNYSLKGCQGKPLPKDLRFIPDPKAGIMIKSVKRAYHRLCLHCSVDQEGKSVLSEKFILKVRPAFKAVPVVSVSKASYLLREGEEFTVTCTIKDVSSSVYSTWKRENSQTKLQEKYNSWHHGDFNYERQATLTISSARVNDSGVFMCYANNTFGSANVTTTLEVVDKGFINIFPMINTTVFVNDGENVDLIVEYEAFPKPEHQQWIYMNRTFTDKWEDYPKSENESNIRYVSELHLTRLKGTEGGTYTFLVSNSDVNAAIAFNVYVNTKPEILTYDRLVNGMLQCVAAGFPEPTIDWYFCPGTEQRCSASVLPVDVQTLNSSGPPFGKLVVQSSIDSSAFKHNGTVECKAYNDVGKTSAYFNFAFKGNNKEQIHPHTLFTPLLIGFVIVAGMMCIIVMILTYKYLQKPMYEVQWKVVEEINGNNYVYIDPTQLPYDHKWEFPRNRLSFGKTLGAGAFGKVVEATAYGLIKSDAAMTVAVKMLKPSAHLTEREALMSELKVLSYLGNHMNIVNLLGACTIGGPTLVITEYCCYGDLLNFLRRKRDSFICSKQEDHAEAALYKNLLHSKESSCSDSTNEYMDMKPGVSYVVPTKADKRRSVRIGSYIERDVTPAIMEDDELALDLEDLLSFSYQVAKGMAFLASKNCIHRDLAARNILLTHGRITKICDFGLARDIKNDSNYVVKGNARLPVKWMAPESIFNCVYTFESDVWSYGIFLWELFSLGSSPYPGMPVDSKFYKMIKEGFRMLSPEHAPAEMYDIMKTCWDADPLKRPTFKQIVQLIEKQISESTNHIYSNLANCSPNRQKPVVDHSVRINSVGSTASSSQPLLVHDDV

| SMILES | IC50 (c-Kit kinase) | IC50 [1] |
| --- | --- | --- |
| Cc1nn(C)cc1-c1cc2c(N3CCC(c4nc(C)c(-c5ccc(OC(F)(F)F)cc5)[nH]4)CC3)ncnc2[nH]1 [P-3122, 6-(1,3-dimethylpyrazol-4-yl)-4-[4-[4-methyl-5-[4-(trifluoromethoxy)phenyl]-1H-imidazol-2-yl]-1-piperidyl]-7H-pyrrolo[2,3-d]pyrimidine] | 0.0001 to 1 µM | < 10 µM |
| COc1cccc(-c2[nH]c(C3CCN(c4ncnc5[nH]c(-c6ccnc(OC)c6)cc45)CC3)nc2C(F)(F)F)c1 [P-3123, 4-[4-[5-(3-methoxyphenyl)-4-(trifluoromethyl)-1H-imidazol-2-yl]-1-piperidyl]-6-(2-methoxy-4-pyridyl)-7H-pyrrolo[2,3-d]pyrimidine] | 0.0001 to 1 µM | < 10 µM |
| COc1cccc(-c2[nH]c(C3CCN(c4ncnc5[nH]c(-c6ccc(C#N)cc6)cc45)CC3)nc2C(F)(F)F)c1 [P-3124, 4-[4-[4-[5-(3-methoxyphenyl)-4-(trifluoromethyl)-1H-imidazol-2-yl]-1-piperidyl]-7H-pyrrolo[2,3-d]pyrimidin-6-yl]benzonitrile] | 0.0001 to 1 µM | < 10 µM |
| CCOc1ccc(-c2[nH]c(C3CCN(c4ncnc5[nH]c(C)cc45)CC3)nc2C)cc1C [P-3125, 4-[4-[5-(4-ethoxy-3-methyl-phenyl)-4-methyl-1H-imidazol-2-yl]-1-piperidyl]-6-methyl-7H-pyrrolo[2,3-d]pyrimidine] | 1 to 10 µM | < 10 µM |
| CCOc1cc(-c2[nH]c(C3CCN(c4ncnc5[nH]c(C)cc45)CC3)nc2C)ccc1C [P-3126, 4-[4-[5-(3-ethoxy-4-methyl-phenyl)-4-methyl-1H-imidazol-2-yl]-1-piperidyl]-6-methyl-7H-pyrrolo[2,3-d]pyrimidine] | 0.0001 to 1 µM | < 10 µM |
| Cc1cc2c(N3CCC(c4nc(C)c(-c5ccc6c(c5)OC(F)(F)O6)[nH]4)CC3)ncnc2[nH]1 [P-3127, 4-[4-[5-(2,2-difluoro-1,3-benzodioxol-5-yl)-4-methyl-1H-imidazol-2-yl]-1-piperidyl]-6-methyl-7H-pyrrolo[2,3-d]pyrimidine] | 1 to 10 µM | < 10 µM |
| COc1ccc(-c2[nH]c(C3CCN(c4ncnc5[nH]c(C)cc45)CC3)nc2C)cc1C [P-3128, 4-[4-[5-(4-methoxy-3-methyl-phenyl)-4-methyl-1H-imidazol-2-yl]-1-piperidyl]-6-methyl-7H-pyrrolo[2,3-d]pyrimidine] | 1 to 10 µM | < 10 µM |
| COc1cc(-c2[nH]c(C3CCN(c4ncnc5[nH]c(C)cc45)CC3)nc2C)ccc1C [P-3129, 4-[4-[5-(3-methoxy-4-methyl-phenyl)-4-methyl-1H-imidazol-2-yl]-1-piperidyl]-6-methyl-7H-pyrrolo[2,3-d]pyrimidine] | 1 to 10 µM | < 10 µM |
| COc1ccc(-c2[nH]c(C3CCN(c4ncnc5[nH]c(C)cc45)CC3)nc2C)cc1 [P-3130, 4-[4-[5-(4-methoxyphenyl)-4-methyl-1H-imidazol-2-yl]-1-piperidyl]-6-methyl-7H-pyrrolo[2,3-d]pyrimidine] | 1 to 10 µM | < 10 µM |
| COc1cccc(-c2[nH]c(C3CCN(c4ncnc5[nH]c(C)cc45)CC3)nc2C)c1 [P-3131, 4-[4-[5-(3-methoxyphenyl)-4-methyl-1H-imidazol-2-yl]-1-piperidyl]-6-methyl-7H-pyrrolo[2,3-d]pyrimidine] | 1 to 10 µM | < 10 µM |
| Cc1nc(C2CCN(c3ncnc4[nH]c(-c5ccc(C#N)cc5)cc34)CC2)[nH]c1-c1ccc2c(c1)OCCO2 [P-3132, 4-[4-[4-[5-(2,3-dihydro-1,4-benzodioxin-6-yl)-4-methyl-1H-imidazol-2-yl]-1-piperidyl]-7H-pyrrolo[2,3-d]pyrimidin-6-yl]benzonitrile] | 0.0001 to 1 µM | < 10 µM |
| Cc1nc(C2CCN(c3ncnc4[nH]c(-c5cnn(C(F)F)c5)cc34)CC2)[nH]c1-c1ccc2c(c1)OCCO2 [P-3133, 6-[1-(difluoromethyl)pyrazol-4-yl]-4-[4-[5-(2,3-dihydro-1,4-benzodioxin-6-yl)-4-methyl-1H-imidazol-2-yl]-1-piperidyl]-7H-pyrrolo[2,3-d]pyrimidine] | 0.0001 to 1 µM | < 10 µM |
| COc1cc(-c2cc3c(N4CCC(c5nc(C(F)(F)F)c(-c6ccc(C)cc6)[nH]5)CC4)ncnc3[nH]2)ccn1 [P-3134, 6-(2-methoxy-4-pyridyl)-4-[4-[5-(p-tolyl)-4-(trifluoromethyl)-1H-imidazol-2-yl]-1-piperidyl]-7H-pyrrolo[2,3-d]pyrimidine] | 0.0001 to 1 µM | < 10 µM |
| Cc1ccc(-c2[nH]c(C3CCN(c4ncnc5[nH]c(-c6ccc(F)cc6)cc45)CC3)nc2C(F)(F)F)cc1 [P-3135, 6-(4-fluorophenyl)-4-[4-[5-(p-tolyl)-4-(trifluoromethyl)-1H-imidazol-2-yl]-1-piperidyl]-7H-pyrrolo[2,3-d]pyrimidine] | 0.0001 to 1 µM | < 10 µM |
| Cc1nc(C2CCN(c3ncnc4[nH]c(-c5ccc(F)cc5)cc34)CC2)[nH]c1-c1ccc(C(F)(F)F)cc1 [P-3136, 6-(4-fluorophenyl)-4-[4-[4-methyl-5-[4-(trifluoromethyl)phenyl]-1H-imidazol-2-yl]-1-piperidyl]-7H-pyrrolo[2,3-d]pyrimidine] | 1 to 10 µM | < 10 µM |
| Cc1nc(C2CCN(c3ncnc4[nH]c(-c5ccc(C#N)cc5)cc34)CC2)[nH]c1-c1ccc(C(F)(F)F)cc1 [P-3137, 4-[4-[4-[4-methyl-5-[4-(trifluoromethyl)phenyl]-1H-imidazol-2-yl]-1-piperidyl]-7H-pyrrolo[2,3-d]pyrimidin-6-yl]benzonitrile] | 1 to 10 µM | < 10 µM |
| Cc1nc(C2CCN(c3ncnc4[nH]c(-c5cnn(C(F)F)c5)cc34)CC2)[nH]c1-c1ccc2c(c1)OCO2 [P-3138, 4-[4-[5-(1,3-benzodioxol-5-yl)-4-methyl-1H-imidazol-2-yl]-1-piperidyl]-6-[1-(difluoromethyl)pyrazol-4-yl]-7H-pyrrolo[2,3-d]pyrimidine] | 0.0001 to 1 µM | < 10 µM |
| CCOc1ccc(-c2[nH]c(C3CCN(c4ncnc5[nH]c(-c6cnn(C(F)F)c6)cc45)CC3)nc2C)cc1C [P-3139, 6-[1-(difluoromethyl)pyrazol-4-yl]-4-[4-[5-(4-ethoxy-3-methyl-phenyl)-4-methyl-1H-imidazol-2-yl]-1-piperidyl]-7H-pyrrolo[2,3-d]pyrimidine] | 0.0001 to 1 µM | < 10 µM |
| CCC1(c2nc(C)c(-c3ccc(OC)cc3)[nH]2)CCN(c2ncnc3[nH]c(C)cc23)CC1 [P-3140, 4-[4-ethyl-4-[5-(4-methoxyphenyl)-4-methyl-1H-imidazol-2-yl]-1-piperidyl]-6-methyl-7H-pyrrolo[2,3-d]pyrimidine] | 1 to 10 µM | < 10 µM |
| CCC1(c2nc(C)c(-c3ccc(OC)c(C)c3)[nH]2)CCN(c2ncnc3[nH]c(C)cc23)CC1 [P-3141, 4-[4-ethyl-4-[5-(4-methoxy-3-methyl-phenyl)-4-methyl-1H-imidazol-2-yl]-1-piperidyl]-6-methyl-7H-pyrrolo[2,3-d]pyrimidine] | 1 to 10 µM | < 10 µM |
| CCOc1ccc(-c2[nH]c(C3(CC)CCN(c4ncnc5[nH]c(C)cc45)CC3)nc2C)cc1C [P-3142, 4-[4-[5-(4-ethoxy-3-methyl-phenyl)-4-methyl-1H-imidazol-2-yl]-4-ethyl-1-piperidyl]-6-methyl-7H-pyrrolo[2,3-d]pyrimidine] | 1 to 10 µM | < 10 µM |
| CCC1(c2nc(C)c(-c3ccc4c(c3)OCO4)[nH]2)CCN(c2ncnc3[nH]c(C)cc23)CC1 [P-3143, 4-[4-[5-(1,3-benzodioxol-5-yl)-4-methyl-1H-imidazol-2-yl]-4-ethyl-1-piperidyl]-6-methyl-7H-pyrrolo[2,3-d]pyrimidine] | 1 to 10 µM | < 10 µM |
| CCC1(c2nc(C)c(-c3ccc4c(c3)OCCO4)[nH]2)CCN(c2ncnc3[nH]c(C)cc23)CC1 [P-3144, 4-[4-[5-(2,3-dihydro-1,4-benzodioxin-6-yl)-4-methyl-1H-imidazol-2-yl]-4-ethyl-1-piperidyl]-6-methyl-7H-pyrrolo[2,3-d]pyrimidine] | 1 to 10 µM | < 10 µM |
| CCOc1ccc(-c2[nH]c(C3(CC)CCN(c4ncnc5[nH]c(C)cc45)CC3)nc2C)cc1 [P-3145, 4-[4-[5-(4-ethoxyphenyl)-4-methyl-1H-imidazol-2-yl]-4-ethyl-1-piperidyl]-6-methyl-7H-pyrrolo[2,3-d]pyrimidine] | 1 to 10 µM | < 10 µM |
| COc1ccc(-c2[nH]c(C3CCN(c4ncnc5[nH]c(-c6ccnc(OC)c6)cc45)CC3)nc2C(F)(F)F)cc1 [P-3146, 4-[4-[5-(4-methoxyphenyl)-4-(trifluoromethyl)-1H-imidazol-2-yl]-1-piperidyl]-6-(2-methoxy-4-pyridyl)-7H-pyrrolo[2,3-d]pyrimidine] | 0.0001 to 1 µM | < 10 µM |
| COc1ccc(-c2[nH]c(C3CCN(c4ncnc5[nH]c(-c6ccc(C#N)cc6)cc45)CC3)nc2C(F)(F)F)cc1 [P-3148, 4-[4-[4-[5-(4-methoxyphenyl)-4-(trifluoromethyl)-1H-imidazol-2-yl]-1-piperidyl]-7H-pyrrolo[2,3-d]pyrimidin-6-yl]benzonitrile] | 0.0001 to 1 µM | < 10 µM |
| COc1cc(-c2cc3c(N4CCC(c5nc(C)c(-c6ccc(C(F)(F)F)cc6)[nH]5)CC4)ncnc3[nH]2)ccn1 [P-3149, 6-(2-methoxy-4-pyridyl)-4-[4-[4-methyl-5-[4-(trifluoromethyl)phenyl]-1H-imidazol-2-yl]-1-piperidyl]-7H-pyrrolo[2,3-d]pyrimidine] | 1 to 10 µM | < 10 µM |
